# Experimental data taken from ChEMBL document CHEMBL5649166, “RIP3 induces apoptosis independent of pronecrotic kinase activity” (Mol Cell, 2014).
# Columns and labels:
# [1] = target: Hepatocyte growth factor receptor (Homo sapiens) (UniProt P08581); experiment: Inhibition of human c-MET using poly[Glu:Tyr] (4:1) as substrate at 1 uM in presence of 32P-ATP by Hotspot assay relative to control; values are per cent of control
# [2] = target: T1, Homeodomain-interacting protein kinase 4 (Homo sapiens) (UniProt Q8NE63); experiment: Inhibition of human HIPK4 using myelin basic protein as substrate at 1 uM in presence of 32P-ATP by Hotspot assay relative to control; values are per cent of control
# T1 sequence (whole entry): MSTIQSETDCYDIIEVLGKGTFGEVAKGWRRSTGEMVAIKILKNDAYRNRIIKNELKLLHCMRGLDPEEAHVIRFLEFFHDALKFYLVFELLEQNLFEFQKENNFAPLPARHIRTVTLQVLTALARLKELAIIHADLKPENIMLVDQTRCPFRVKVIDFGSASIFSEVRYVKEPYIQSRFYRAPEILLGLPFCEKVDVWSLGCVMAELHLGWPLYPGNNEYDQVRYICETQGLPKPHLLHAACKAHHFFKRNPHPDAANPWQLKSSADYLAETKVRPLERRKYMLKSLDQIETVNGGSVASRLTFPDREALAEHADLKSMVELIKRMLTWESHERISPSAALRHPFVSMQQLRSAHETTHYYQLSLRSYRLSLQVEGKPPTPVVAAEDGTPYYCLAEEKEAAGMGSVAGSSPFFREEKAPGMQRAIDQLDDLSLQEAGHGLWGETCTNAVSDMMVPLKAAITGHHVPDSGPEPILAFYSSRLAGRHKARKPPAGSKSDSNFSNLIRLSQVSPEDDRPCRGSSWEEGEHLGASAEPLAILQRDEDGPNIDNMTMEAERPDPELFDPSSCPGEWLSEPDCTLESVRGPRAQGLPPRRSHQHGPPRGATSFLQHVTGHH
# [3] = target: Serine/threonine-protein kinase SIK2 (Homo sapiens) (UniProt Q9H0K1); experiment: Inhibition of human SIK2 using AMARAASAAALARRR as substrate at 1 uM in presence of 32P-ATP by Hotspot assay relative to control
# Sequence of Serine/threonine-protein kinase SIK2 (Homo sapiens) (Q9H0K1 whole entry, looked up): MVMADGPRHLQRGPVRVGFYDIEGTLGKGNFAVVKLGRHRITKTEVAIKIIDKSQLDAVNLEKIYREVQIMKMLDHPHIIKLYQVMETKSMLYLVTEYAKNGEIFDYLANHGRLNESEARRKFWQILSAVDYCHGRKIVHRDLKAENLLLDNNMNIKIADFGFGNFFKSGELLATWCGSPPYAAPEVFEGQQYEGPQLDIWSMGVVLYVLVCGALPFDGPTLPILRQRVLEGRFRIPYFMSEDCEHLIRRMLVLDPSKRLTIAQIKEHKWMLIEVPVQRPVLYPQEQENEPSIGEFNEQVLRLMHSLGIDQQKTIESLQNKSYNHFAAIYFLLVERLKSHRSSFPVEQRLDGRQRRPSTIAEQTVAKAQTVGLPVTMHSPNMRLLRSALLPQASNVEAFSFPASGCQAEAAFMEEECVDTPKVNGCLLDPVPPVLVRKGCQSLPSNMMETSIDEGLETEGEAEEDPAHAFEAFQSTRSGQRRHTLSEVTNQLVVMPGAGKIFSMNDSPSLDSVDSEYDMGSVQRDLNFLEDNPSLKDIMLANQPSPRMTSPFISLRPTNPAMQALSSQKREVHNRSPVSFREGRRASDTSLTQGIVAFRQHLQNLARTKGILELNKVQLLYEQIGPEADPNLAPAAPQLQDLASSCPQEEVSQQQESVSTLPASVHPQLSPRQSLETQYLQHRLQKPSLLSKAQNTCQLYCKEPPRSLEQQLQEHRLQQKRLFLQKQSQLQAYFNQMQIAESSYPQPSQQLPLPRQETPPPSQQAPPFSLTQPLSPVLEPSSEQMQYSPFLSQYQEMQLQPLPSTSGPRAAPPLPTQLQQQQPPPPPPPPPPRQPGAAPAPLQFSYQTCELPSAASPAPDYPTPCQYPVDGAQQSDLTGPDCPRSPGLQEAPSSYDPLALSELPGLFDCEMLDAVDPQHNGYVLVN
# [4] = target: T2, Aurora kinase A (Homo sapiens) (UniProt O14965); experiment: Inhibition of human Aurora A using H-LRRASLG as substrate at 1 uM in presence of 32P-ATP by Hotspot assay relative to control; values are per cent of control
# T2 sequence (whole entry): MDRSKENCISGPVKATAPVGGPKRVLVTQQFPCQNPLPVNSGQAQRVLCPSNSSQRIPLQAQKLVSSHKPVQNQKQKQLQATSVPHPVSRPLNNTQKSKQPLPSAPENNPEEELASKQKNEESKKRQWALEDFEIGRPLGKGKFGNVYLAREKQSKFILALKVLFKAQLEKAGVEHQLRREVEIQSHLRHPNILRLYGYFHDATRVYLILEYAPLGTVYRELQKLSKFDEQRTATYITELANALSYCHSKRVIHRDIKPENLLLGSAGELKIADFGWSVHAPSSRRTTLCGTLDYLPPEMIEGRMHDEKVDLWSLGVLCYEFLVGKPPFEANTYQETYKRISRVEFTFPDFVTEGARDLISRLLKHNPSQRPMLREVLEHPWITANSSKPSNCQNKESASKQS
# [5] = target: Serine/threonine-protein kinase 24 (Homo sapiens) (UniProt Q9Y6E0); experiment: Inhibition of human MST3/STK24 using myelin basic protein as substrate at 1 uM in presence of 32P-ATP by Hotspot assay relative to control; values are per cent of control
# Sequence of Serine/threonine-protein kinase 24 (Homo sapiens) (Q9Y6E0 whole entry, looked up): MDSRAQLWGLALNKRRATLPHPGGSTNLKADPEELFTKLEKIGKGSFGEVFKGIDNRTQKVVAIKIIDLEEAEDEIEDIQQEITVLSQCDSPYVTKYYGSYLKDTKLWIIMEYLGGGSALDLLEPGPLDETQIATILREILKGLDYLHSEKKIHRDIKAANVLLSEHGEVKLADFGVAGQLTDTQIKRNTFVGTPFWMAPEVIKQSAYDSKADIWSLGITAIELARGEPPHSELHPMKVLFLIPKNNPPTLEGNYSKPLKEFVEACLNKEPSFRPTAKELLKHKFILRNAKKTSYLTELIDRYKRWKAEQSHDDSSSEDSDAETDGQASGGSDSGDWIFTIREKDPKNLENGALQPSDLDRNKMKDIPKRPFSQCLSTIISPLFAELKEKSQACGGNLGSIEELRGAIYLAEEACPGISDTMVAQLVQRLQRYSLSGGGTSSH
# [6] = target: T3, NUAK family SNF1-like kinase 2 (Homo sapiens) (UniProt Q9H093); experiment: Inhibition of human SNARK/NUAK2 using KKKVSRSGLYRSPSMPENLNRPR as substrate at 1 uM in presence of 32P-ATP by Hotspot assay relative to control; values are per cent of control
# T3 sequence (whole entry): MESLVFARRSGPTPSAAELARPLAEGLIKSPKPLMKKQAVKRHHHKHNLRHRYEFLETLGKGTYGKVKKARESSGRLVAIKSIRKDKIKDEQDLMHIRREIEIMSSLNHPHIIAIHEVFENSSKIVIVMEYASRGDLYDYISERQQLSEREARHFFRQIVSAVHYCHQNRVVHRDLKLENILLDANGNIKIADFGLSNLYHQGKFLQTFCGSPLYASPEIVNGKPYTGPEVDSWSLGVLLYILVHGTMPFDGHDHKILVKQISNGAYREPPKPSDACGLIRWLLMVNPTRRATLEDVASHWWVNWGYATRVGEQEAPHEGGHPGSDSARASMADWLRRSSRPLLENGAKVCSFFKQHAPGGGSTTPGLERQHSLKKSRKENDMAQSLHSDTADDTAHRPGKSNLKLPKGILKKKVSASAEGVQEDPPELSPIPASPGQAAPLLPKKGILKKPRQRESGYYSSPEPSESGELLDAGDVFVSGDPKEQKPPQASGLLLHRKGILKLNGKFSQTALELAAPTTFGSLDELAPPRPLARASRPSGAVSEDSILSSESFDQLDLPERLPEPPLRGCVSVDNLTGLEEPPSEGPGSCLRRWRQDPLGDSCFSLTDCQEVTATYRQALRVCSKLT
# [7] = target: T4, Cytoplasmic tyrosine-protein kinase BMX (Homo sapiens) (UniProt P51813); experiment: Inhibition of human BMX/ETK using poly[Glu:Tyr] (4:1) as substrate at 1 uM in presence of 32P-ATP by Hotspot assay relative to control; values are per cent of control
# T4 sequence (whole entry): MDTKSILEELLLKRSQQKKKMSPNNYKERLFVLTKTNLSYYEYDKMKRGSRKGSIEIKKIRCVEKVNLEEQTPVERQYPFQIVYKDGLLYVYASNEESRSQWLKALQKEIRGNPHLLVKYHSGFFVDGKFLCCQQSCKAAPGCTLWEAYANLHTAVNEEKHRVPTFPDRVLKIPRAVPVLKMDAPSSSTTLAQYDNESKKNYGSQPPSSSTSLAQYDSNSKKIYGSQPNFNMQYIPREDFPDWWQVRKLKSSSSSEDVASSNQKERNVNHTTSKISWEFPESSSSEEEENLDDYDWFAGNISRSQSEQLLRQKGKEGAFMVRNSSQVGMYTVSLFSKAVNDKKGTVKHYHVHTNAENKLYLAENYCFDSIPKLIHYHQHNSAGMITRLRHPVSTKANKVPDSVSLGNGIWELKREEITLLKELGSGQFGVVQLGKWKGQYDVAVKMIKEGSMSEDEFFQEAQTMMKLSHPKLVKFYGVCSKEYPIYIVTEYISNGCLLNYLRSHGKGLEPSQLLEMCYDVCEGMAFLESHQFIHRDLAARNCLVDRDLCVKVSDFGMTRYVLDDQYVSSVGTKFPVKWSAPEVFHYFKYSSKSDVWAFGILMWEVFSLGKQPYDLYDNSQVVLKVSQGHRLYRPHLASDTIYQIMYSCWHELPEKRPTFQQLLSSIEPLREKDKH
# Sequence of Hepatocyte growth factor receptor (Homo sapiens) (P08581 whole entry): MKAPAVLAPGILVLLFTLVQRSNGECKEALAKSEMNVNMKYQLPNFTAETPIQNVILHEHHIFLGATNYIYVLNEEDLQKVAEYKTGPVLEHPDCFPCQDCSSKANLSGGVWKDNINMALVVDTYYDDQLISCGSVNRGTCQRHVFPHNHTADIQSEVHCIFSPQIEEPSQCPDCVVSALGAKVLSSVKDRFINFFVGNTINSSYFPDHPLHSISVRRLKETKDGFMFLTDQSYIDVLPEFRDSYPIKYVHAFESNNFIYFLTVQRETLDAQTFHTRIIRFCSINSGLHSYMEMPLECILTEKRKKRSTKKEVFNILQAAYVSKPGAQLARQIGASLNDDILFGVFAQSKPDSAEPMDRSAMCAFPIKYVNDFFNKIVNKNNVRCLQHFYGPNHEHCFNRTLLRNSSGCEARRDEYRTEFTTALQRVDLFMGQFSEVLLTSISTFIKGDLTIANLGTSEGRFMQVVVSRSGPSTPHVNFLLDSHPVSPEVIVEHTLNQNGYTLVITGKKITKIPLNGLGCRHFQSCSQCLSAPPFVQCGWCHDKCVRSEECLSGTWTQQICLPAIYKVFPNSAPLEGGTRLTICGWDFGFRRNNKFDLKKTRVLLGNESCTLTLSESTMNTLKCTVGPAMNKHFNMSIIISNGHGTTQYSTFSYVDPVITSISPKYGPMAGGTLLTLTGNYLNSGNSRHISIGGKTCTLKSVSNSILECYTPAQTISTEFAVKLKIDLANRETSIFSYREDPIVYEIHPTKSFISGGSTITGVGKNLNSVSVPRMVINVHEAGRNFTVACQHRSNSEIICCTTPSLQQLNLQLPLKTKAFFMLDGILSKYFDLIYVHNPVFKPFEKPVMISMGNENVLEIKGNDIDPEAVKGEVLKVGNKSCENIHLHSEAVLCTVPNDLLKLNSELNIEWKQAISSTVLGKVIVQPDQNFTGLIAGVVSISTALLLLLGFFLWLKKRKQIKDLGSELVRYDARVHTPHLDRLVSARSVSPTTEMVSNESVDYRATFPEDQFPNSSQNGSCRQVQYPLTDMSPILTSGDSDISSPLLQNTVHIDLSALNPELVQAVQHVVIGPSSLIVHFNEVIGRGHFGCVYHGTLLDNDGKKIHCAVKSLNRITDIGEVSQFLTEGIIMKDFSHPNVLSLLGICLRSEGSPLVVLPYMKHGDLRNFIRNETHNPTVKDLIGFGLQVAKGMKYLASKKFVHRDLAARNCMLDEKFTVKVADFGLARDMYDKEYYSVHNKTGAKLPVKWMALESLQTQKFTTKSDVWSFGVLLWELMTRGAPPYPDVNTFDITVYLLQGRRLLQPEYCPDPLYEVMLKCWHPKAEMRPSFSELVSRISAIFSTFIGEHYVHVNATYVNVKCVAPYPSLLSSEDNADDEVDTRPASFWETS
SMILES,residual activity [1] [%],residual activity [2] [%],inhibition [3] [%],residual activity [4] [%],residual activity [5] [%],residual activity [6] [%],residual activity [7] [%]
Cc1cc(-c2cnc(N)c3c(-c4ccc5scnc5c4)csc23)n(C)n1,76.8,106,92,99,93.9,95.9,91.1
CNC(=O)c1ccc2c(c1)ncn2-c1ccc(CC(=O)OC(C)(C)C)cc1,92.4,107,93.2,101,94,89.7,83.5
CC(C)S(=O)(=O)c1ccc2nccc(Nc3ccc4scnc4c3)c2c1,86.2,93.7,93.1,95.9,100,108,69.9
